From paper PMC7648750, “In vitro and in vivo BNCT investigations using a carborane containing sulfonamide targeting CAIX epitopes on malignant pleural mesothelioma and breast cancer cells” (Scientific Reports, 2020)

Assays:
AB22 cells [1] = test: Cell uptake of boron (ICP-MS); format: cell-based, mouse; conditions: AB22, 130 µM CA-SF in culture medium, 24 h, 37 °C
Description: For the in vitro uptake experiments, 6 × 10^5 MCF7, 4.5 × 10^5 ZL34 and 2 × 10^5 AB22 were seeded in 6 cm of diameter dishes. After 24 h for MCF7 and ZL34 and after 72 h for AB22, the cells were incubated for 24 h with increasing concentration of CA-SF. All the incubations were performed in condition of normoxia at 37 °C, 5% CO2. At the end of the incubation, cells were washed three times with 3 ml ice-cold PBS and detached with 0.05% trypsin and 0.02% EDTA. Finally, all cell samples were transferred in falcon tubes and sonicated at 30% of power for 30 s in ice. The boron content of each cell sample lysates was determined by ICP-MS technique (see below). The milligrams of proteins, proportional to the number of cells, of each cell sample lysate, was evaluated by the Bradford assay (Biorad) using bovine serum albumin as a standard.
Boron content from cell samples, mice organs, plasma and tumours were determined using inductively coupled plasma mass spectrometry (ICP-MS) (Element-2; Thermo-Finnigan, Rodano (MI), Italy).
Sample digestion was performed using a high performance Microwave Digestion System (ETHOS UP Milestone, Bergamo, Italy) after the addition of concentrated HNO3 (70%) to cell lysates (1:1), in a final volume of 0.4 mL. […] The amounts of boron µg /g tissue were thus calculated considering that 1 g of tissue contains 1 × 10^9 cells.

AB22 cells [2] = test: Proliferation assay of cells surviving irradiation; format: cell-based, mouse; conditions: AB22, 130 µM CA-SF before neutron irradiation
Description: (§1) 75 flasks of MCF7 (4 flasks), ZL34 (4 flasks) and AB22 (4 flasks) were seeded at a density of 1.8 × 10^6 cells, 1.2 × 10^6 cells and 5.5 × 10^5 cells, respectively. 24 h later for MCF7 and ZL34 and 72 h later for AB22, 2 flasks of each cell lines were incubated for 24 h in the presence of 72 µM, 187.5 µM and 130 µM of CA-SF, respectively. After the incubation, cells were washed with PBS and their medium was renewed. Two flasks of MCF7, ZL34 and AB22 cells incubated with CA-SF and two flasks containing non-treated control cells were irradiated for 15′ at 30 kW reactor power in the thermal column of the TRIGA Mark II reactor at the University of Pavia, Italy. […]
(§2) Then, around 7 × 10^5 MCF7, 3.5 × 10^5 ZL34 and 1 × 10^5 AB22 cells from each differently treated flask were seeded in 10 cm diameter culture dishes. […] Then, cells were sonicated for 30 s at 30% power in ice and the total cell protein concentration (that is proportional to the number of cells) from cell lysates was determined by the Bradford method, using bovine serum albumin as a standard. The Cell Growth Rate was calculated as follows: Number of cellsti-Number of cellst0/Number of cellst0×100 for which Number of cells (ti) is the number of cells measured at the various time intervals and the number of cells (t0) is the number of cells at the starting point (t = 0) of the proliferation assay.

MCF7 cells [3] = test: Proliferation assay of cells surviving irradiation; format: cell-based, human; conditions: MCF7, 72 µM CA-SF before neutron irradiation
Description: as §1, §2

ZL34 cells [4] = test: Proliferation assay of cells surviving irradiation; format: cell-based, human; conditions: ZL34, 187.5 µM CA-SF before neutron irradiation
Description: as §1, §2

MCF7 cells [5] = test: BNCT in vitro: viable cells 24 h after neutron irradiation (trypan blue); format: cell-based, human; conditions: MCF7, 72 µM 24 h, thermal neutrons 15 min 30 kW, 24 h after irradiation
Description: (§3) 75 flasks of MCF7 (4 flasks), ZL34 (4 flasks) and AB22 (4 flasks) were seeded at a density of 1.8 × 10^6 cells, 1.2 × 10^6 cells and 5.5 × 10^5 cells, respectively. 24 h later for MCF7 and ZL34 and 72 h later for AB22, 2 flasks of each cell lines were incubated for 24 h in the presence of 72 µM, 187.5 µM and 130 µM of CA-SF, respectively. After the incubation, cells were washed with PBS and their medium was renewed. Two flasks of MCF7, ZL34 and AB22 cells incubated with CA-SF and two flasks containing non-treated control cells were irradiated for 15′ at 30 kW reactor power in the thermal column of the TRIGA Mark II reactor at the University of Pavia, Italy. At the end of the irradiation, the medium was removed, it was replaced with fresh medium and flasks were placed at 37 °C in a humidified atmosphere of 5% CO2.
(§4) The proliferation assay was carried out following the same procedure reported in reference 32. The day after irradiation cells were detached with 0.05% trypsin and 0.02% EDTA and the trypan blue exclusion test of cell viability was performed. Cell viability was reported as percentage of cells observed in treated a/o irradiated samples relative to that observed in control cells.

ZL34 cells [6] = test: as above; format: cell-based, human; conditions: ZL34, 187.5 µM 24 h, thermal neutrons 15 min 30 kW, 24 h after irradiation
Description: as §3, §4

AB22 cells [7] = test: MTT cell vitality assay; format: cell-based, mouse; conditions: normoxia
Description: The MTT assay is based on the reduction in the mitochondria of metabolically active cells by succinate dehydrogenase obtaining a precipitation of purple formazan crystal. The assay was carried out using the same protocol reported by Azzi et al[42]. Briefly, AB22, ZL34 and MCF7 cells were seeded at a density of 7 × 10^3, 5 × 10^3 and 1 × 10^4 cells per well, respectively, in a 96-well microtiter plate. After 24 h at 37 °C and 5% CO2, they were incubated with increasing concentration of CA-SF or AZ for 24 h in a condition of normoxia at 37 °C and 5% CO2 by adding stock solutions in dimethyl sulfoxide (DMSO). In all the conditions the concentration of DMSO during the cell incubation was maintained under 0.25% (v/v) in cell medium. After the incubation, the medium was removed and each well was incubated with thiazolyl blue tetrazolium bromide (Sigma) dissolved in the medium at a concentration of 0.45 mg/mL for 4 h at 37 °C and 5% CO2. Then, after medium elimination, 150 µL of DMSO were added into each well to solubilise the formazan salt crystals produced by the metabolism of live cells and the microplate was incubated at room temperature (RT) for 30 min. Finally, absorbance was measured at 570 nm using an iMark microplate reader (Biorad). Cell vitality was reported as the percentage of […] cells observed in the treated samples relative to that observed in the non-treated control cells.

boron loaded into the target cells (AB22 cells [1]): 160 µg/g
Substance: 1-Sulfonamidomethyl-o-carborane [CA-SF]
proliferation rate of cells surviving to irradiation (AB22 cells [2]): marked inhibition of proliferation
proliferation rate of cells surviving to irradiation (MCF7 cells [3]): marked inhibition of proliferation
proliferation rate of cells surviving to irradiation (ZL34 cells [4]): marked inhibition of proliferation
viability of CA-SF treated and irradiated cells vs CA-SF treated cells (MCF7 cells [5]): significantly reduced
viability of CA-SF treated and irradiated cells vs CA-SF treated cells (ZL34 cells [6]): comparable
cell vitality measured by MTT (AB22 cells [7]; AB22, 130 µM CA-SF, 24 h, 37 °C): about 80%
percentage of viable cells with increasing concentration (MTT) (AB22 cells [7]; AB22, 24 h, Fig. 3): steadily decreases
